The values that follow come from patent US6440690B1, “Peptides for the activation of the immune system in humans and animals” (priority 1995, dated 2002).

“Also recorded” adds a separate entry of the source. Ends that are not written are not given here.

Test [1] concerns Leishmania major. Briefly: Murine cutaneous leishmaniasis, SPYY i.v. in Balb/c mice. It is filed as in vivo. Conditions: same doses as SPYY, 6 mice.
The nature of test [2]: Dissipation of Diffusion Potential Assay (membrane permeation). The settings on record: SUV pretreated with diS-C2-5 and valinomycin. On the procedure:
Methods: Small unilamellar vesicles (SUV) were prepared by sonication of PC/PS (1:1 w/w) and cholesterol (10% by weight) as described in Shai et al., 1991, J. Biol. Chem. 266:22346-54. Membrane permeation was assessed using the diffusion potential assay. Sims et al., 1974, Biochemistry 13:3315-3330; Shai et al., 1991, J. Biol. Chem. 266:22346-54. […] Maximal activity of the peptides was plotted versus peptide/lipid molar ratio.

Test [3] has as its system pathogenic microorganisms including bacteria, yeasts, filamentous fungi and protozoa. Briefly: Antimicrobial activity on the spectrum of microorganisms of TABLE I. It is filed as cell-based. The settings on record: same experimental conditions. On the procedure: Methods. […] Antimicrobial assays were performed as described in Mor and Nicolas, 1994, J. Biol. Chem. 269:1934-1939. The effect on leishmania was assessed after 1 hour peptide exposure by counting living cells following trypan blue […]. Promastigotes were cultured (1×10^5 cells/ml) at 26° C. […] Trop. Med. Parasitol. 78:423-425, and cultured (1×10^4 cells/ml) at 37° C. Reversibility of inhibition was assessed by incubating 0.5 ml suspension containing 1×10^6 cells/ml in culture media in presence of peptide concentration of 0.2 mg/ml. After various incubation periods, aliquots were centrifuged at 900 g, the pellet washed and reincubated for 24 hours in fresh culture medium.
To verify the reversibility of inhibition, treated suspensions were thoroughly washed at various periods and reincubated in fresh medium.

For a further test, the system named is Pseudonomas aeruginosa. Conditions: U.S. Pat. No. 5,221,664; cited from earlier work.
Test [4] concerns Leishmania major. Briefly: Murine cutaneous leishmaniasis, drug administration to infected Balb/c mice (TABLE V). In kind it is in vivo. The source says:
To investigate the peptide's efficacy in affecting leishmania parasites in vivo, murine cutaneous-leishmaniasis models were used in which mice inoculated with Leishmania major promastigotes were allowed to develop a characteristic cutaneous lesion that attained a mean diameter of […] at day 27 of inoculation. Frommel et al., 1988 , Infection and Immunity 56:843. Treatment consisted of 3 peptide injections at intervals of 5 days and was compared with the effect induced by sodium stibogluconate, the current anti-leishmaniasis drug of choice. After injections, samples drawn periodically from the lesion area were analyzed for assessment of parasites evolution.
Methods: Female mice, 6 to 8 weeks old, were inoculated with Leishmania major promastigotes (1×10^6) at the proximal portion of the tail as described in Frommel et al., 1988, Infection and Immunity 56:843. […] Simultaneously, evolution of the cutaneous lesion was assessed by direct measurement of the necrotic zone of the lesion.
Methods. Cytokine concentrations in serum of treated and untreated Balb/c mice were determined by enzyme-immunoassay (Kit Genzyme®) using murine anti-IFN-γ or anti-TNF-α monoclonal antibodies and the corresponding rabbit polyclonal antibodies conjugated to peroxidase, following the manufacturer instructions.

The test system of another test is Leishmania. The settings on record: 300 mg/kg for 20-40 injections; cited from earlier work.

In the case of “EEEKRENEDEEKQDDEQSEM [acidic peptide, helical acidic synthetic peptide, control]”, the “control peptide compared with physiological water control” value in the test on Leishmania major [1] is “No significant differences”. For PEEMNKYLTALRHYINLVTRQRY-NH2 [SPYY14-36], the membrane permeation entry in test [2] is “permeated phospholipid vesicles”. Also, the “antimicrobial potency compared with SPYY” value in test [3] is reported as “comparable molar potency”. On to Magainin II: magainin peptide, for which, in the test with Pseudonomas aeruginosa, the MIC (in general, the least concentration at which growth counts as inhibited) is 256 µM. For “NPY: human NPY, 36-residue peptide of the pancreatic peptide family”, in test [3], the “antimicrobial potency compared with SPYY” value is on record as “inhibitory activity at comparable concentrations”.

With `O.O.O.O.O.O.O.O.O.O=C([O-])[C@@H]1[O][Sb]2([O-])([O][Sb]34([OH])[O][C@H]([C@H](O)CO)[C@H]([O]3)[C@H](C(=O)[O-])[O]4)[O][C@H]([C@H](O)CO)[C@@H]1[O]2.[Na+].[Na+].[Na+]` [NaSG, sodium stibogluconate], the “outcome of the cutaneous lesion / disease” value with Leishmania major [4] (Balb/c, up to twelve weeks post inoculation and later) was “reduced; also recorded: complete healing or skin cicatrization were not observed”. Also, the “reduction of number of parasites and lesion size” value in the test with Leishmania major [4] (mouse, in vivo) is listed as “partially effective”. meglumine antimoniate [Glucantime]: the outcome of therapy with Leishmania is “does not cure the disease but only results in a transient reduction of the symptoms”. “PYY: human PYY, 36-residue peptide of the pancreatic peptide family”: the “antimicrobial potency compared with SPYY” value in test [3] was “inhibitory activity at comparable concentrations”.
